This is an account of results in US20210255184A1, “Biosensor Device and Methods” (The New Zealand Institute for Plant and Food Research …, priority 2018, published 2021).

SMILES strings stand for the structures.

The experiment concerns the target T1, Or10a/Orco (Drosophila melanogaster, UniProt Q9VYZ1).
T1 construct: his-tag; made in house; host or cells: baculovirus-infected Sf9 cells
T1 sequence (Q9VYZ1 1-406): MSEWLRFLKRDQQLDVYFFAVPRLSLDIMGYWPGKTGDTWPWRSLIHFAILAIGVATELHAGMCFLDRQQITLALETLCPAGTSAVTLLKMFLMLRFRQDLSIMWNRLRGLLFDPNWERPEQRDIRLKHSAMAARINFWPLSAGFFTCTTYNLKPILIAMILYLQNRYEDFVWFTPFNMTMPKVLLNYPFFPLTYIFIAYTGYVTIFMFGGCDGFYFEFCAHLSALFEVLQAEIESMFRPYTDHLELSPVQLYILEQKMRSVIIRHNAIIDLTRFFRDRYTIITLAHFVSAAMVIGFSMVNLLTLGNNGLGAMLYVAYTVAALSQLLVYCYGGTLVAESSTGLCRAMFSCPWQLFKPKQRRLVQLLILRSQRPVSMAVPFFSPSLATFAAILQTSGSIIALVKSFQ
T1 sequence (Q9VNB5 1-486 partner): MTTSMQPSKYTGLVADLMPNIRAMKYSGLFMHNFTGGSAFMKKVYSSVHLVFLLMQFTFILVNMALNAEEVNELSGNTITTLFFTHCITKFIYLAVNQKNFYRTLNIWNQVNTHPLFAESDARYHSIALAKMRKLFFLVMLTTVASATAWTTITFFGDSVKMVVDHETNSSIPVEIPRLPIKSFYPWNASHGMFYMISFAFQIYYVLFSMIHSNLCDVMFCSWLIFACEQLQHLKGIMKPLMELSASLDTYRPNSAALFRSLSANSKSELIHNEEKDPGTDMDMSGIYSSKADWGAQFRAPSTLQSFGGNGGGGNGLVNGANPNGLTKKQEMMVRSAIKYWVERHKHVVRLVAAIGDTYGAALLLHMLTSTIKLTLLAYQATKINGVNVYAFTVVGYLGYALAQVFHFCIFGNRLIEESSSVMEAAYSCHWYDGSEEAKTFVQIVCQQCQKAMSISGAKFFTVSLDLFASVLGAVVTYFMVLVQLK
In words: EIS sensor, Or10a/Orco liposomes on gold electrode. The experiment is classed as biochemical. The method, then:
Prior to their use, liposomes were defrosted on ice and then destabilized by incubating with 0.2% CHAPS for 15 min at room temperature. Then 200 μg of purified odorant receptor^28 was added to 1 mg of liposomes and rotated at 10 rpm for 1 h at room temperature. Excess detergent was removed by four additions of 25 mg of Bio-Beads SM-2 (Bio-Rad, USA) and incubation at 4° C. for 30 min, 2 h, overnight and a further 2 h respectively. The Bio-Beads were removed after each incubation period. The OrX or OrX/Orco integrated liposomes were pelleted by centrifugation at 100,000 g for 1 h, and were resuspended in 500 μL of rehydration buffer. Integration of OrXs and Orco into liposomes was assessed by density gradient ultracentrifugation (DGU) using Accudenz (Accurate Chemical & Scientific Corporation, USA). The integrated liposomes were brought to 40% Accudenz by the addition of an equal volume of 80% Accudenz solution, placed at the bottom of an ultra-centrifugation tube, and overlaid with 30% Accudenz solution, and DGU buffer (25 mM HEPES pH 7.5, 100 mM NaCl, 10% glycerol). The sample was then centrifuged at 100,000 g for 4 h at 4° C. Liposomes will float to the top of the gradient after Accudenz DGU due to their low density.
2 mM MHA was prepared by dissolving 1.36 μl of MHA in 5 ml ethanol (AR grade). The cleaned electrodes were immersed into MHA solution and incubated overnight. The next day, all the electrodes were washed with ethanol and deionised water thoroughly in order to remove the unreacted acid. A 2:1 mol:mol ratio of EDC:NHS (100 mM EDC, 50 mM NHS) was prepared in 2 ml PBS (pH=6.5) solution. Then, the electrodes were covered in 100 μl of this solution at 28° C. for an hour to activate the carboxylic (COOH) groups of the MHA.
PBS solution was prepared by immersing one tablet of PBS in 200 ml of milli-Q water (according to manufacturers instructions) and filtered using 0.2-μm syringe filter. The pH of the prepared buffer solution was measured with a pH meter. OrX liposomes or OrX/Orco liposomes were diluted 100 fold in PBS buffer solution (pH=7.4) and the COOH-activated electrodes were incubated in that buffer solution at room temperature for one hour. Then, the electrodes were washed extensively with PBS buffer solution to wash out any unbound liposomes.
PBS (pH=7.4) was used as an electrolyte to conduct electrochemical measurements. PBS buffer was degassed for about 30 minutes prior to electrochemical measurements. […] OR immobilized electrodes were incubated in relevant odorant solution for ˜30 minutes each and washed gently with PBS before EIS measurements. […]

For the setting “EIS dose response, ligand 1 aM to 100 μM”, `COC(=O)c1ccccc1O` [methyl salicylate] registered a limit of detection of 1 fM. Under “Table 1, approximate”, this compound returned an EC50 of approximately 1 pM. Also, the Sensitivity limit (Table 1, * estimated visually from dose response graph) is ~10^−15 M*. In addition, the “Detection Range” value (Table 3) is 10^−15-10^−7 M.
